This is an account of results in patent publication US6762181B1, “Aminomethylpyrrolidine derivatives having aromatic substituents” (Daiichi Pharmaceutical Co., Ltd., priority 1999, dated 2004).

What all share (assay): Antibacterial activity (MIC), Japan Society of Chemotherapy standard method
Assay type in all cases: cell-based

The test system of one assay is E. coli NIHJ. The protocol:
(§1) Antibacterial activities of the compounds of the invention were measured in accordance with the standard method specified by the Japan Society of Chemotherapy, with the results shown in the following table as MIC values (μg/ml). In this connection, MIC values of levofloxacin (LVFX), ciprofloxacin (CPFX) and 5-amino-7-[3-(R)-[1-(S)-aminoethyl]pyrrolidin-1-yl]-6-fluoro-1-[2-(S)-fluoro-1-(R)-cyclopropyl]-8-methyl-1,4-dihydro-4-oxoquinoline-3-carboxylic acid (control drug 1) described in WO 9623782 are also shown for the sake of comparison with the MIC values of the compounds of the invention.

Another assay concerns E. faecalis ATCC 19433. How it is done: as §1
A further assay concerns K. pneumoniae TYPE 1. The protocol: as §1
The test system of another assay is Pr. Vulgaris O8601. The protocol:
as §1

The next assay has as its system Ps. aeruginosa 32104. The protocol:
as §1

Another assay concerns Ps. aeruginosa 32121. How it is done:
as §1

A further assay relates to S. aureus 870307. The protocol:
as §1

The subject of the next assay is S. aureus FDA 209P. The protocol: as §1
The next assay deals with S. epidermidis 56500. How it is done:
as §1

The next assay has as its system S. flexneri 2A 5503. The protocol:
as §1

A further assay has as its system Ser. marcescens 10100. The protocol: as §1
Another assay has as its system Str. pneumoniae J24. How it is done:
as §1

Another assay concerns Str. pyrogenes G-36. The protocol:
as §1

The subject of another assay is X. maltophilia IID 1275. How it is done:
as §1

The mark [1] stands for this setting: Escherichia coli, read-out: MIC.
[2] abbreviates: Enterococcus faecalis, ATCC19433, E. faecalis ATCC 19433, read-out: MIC.
Where [3] appears, read: Klebsiella pneumoniae, TYPE1, K. pneumoniae TYPE 1, read-out: MIC.
The mark [4] stands for this setting: Proteus vulgaris, read-out: MIC.
The mark [5] stands for this setting: Pseudomonas aeruginosa, 32104, Ps. aeruginosa 32104, read-out: MIC.
Where [6] appears, read: Pseudomonas aeruginosa, 32121, Ps. aeruginosa 32121, read-out: MIC.
Where [7] appears, read: Staphylococcus aureus, 870307, S. aureus 870307, read-out: MIC.
The mark [8] stands for this setting: Staphylococcus aureus, FDA209P, read-out: MIC.
[9] abbreviates: Staphylococcus epidermidis, read-out: MIC.
The mark [10] stands for this setting: Shigella flexneri, 2A5503, S. flexneri 2A 5503, read-out: MIC.
Where [11] appears, read: Serratia marcescens, 10100, Ser. marcescens 10100, read-out: MIC.
Setting [12] is: Streptococcus pneumoniae, J24, Str. pneumoniae J24, read-out: MIC.
Where [13] appears, read: Stenotrophomonas maltophilia, IID1275, X. maltophilia IID 1275, read-out: MIC.

Structures are written as SMILES. Values after ≈ are worked out from the molar mass of the structure shown. Read-outs that look alike come from different tables or passages of the source.

The MIC is the smallest concentration in the dilution series that meets the test's criterion for growth inhibition. Consider `C[C@H]1COc2c(N3CCN(C)CC3)c(F)cc3c(=O)c(C(=O)O)cn1c23` [LVFX, levofloxacin, reference compound], for which the MIC was 0.013 µg/mL (≈ 0.036 µM) in the assay with E. coli NIHJ (setting [1]); 0.78 µg/mL (≈ 2.16 µM) in the assay on E. faecalis ATCC 19433 (setting [2]); 0.1 µg/mL (≈ 0.277 µM) in the assay with K. pneumoniae TYPE 1 (setting [3]); 0.13 µg/mL (≈ 0.36 µM) in the assay on Pr. Vulgaris O8601 (setting [4]); 0.2 µg/mL (≈ 0.553 µM) in the assay with Ps. aeruginosa 32104 (setting [5]); 0.1 µg/mL (≈ 0.277 µM) in the assay with Ps. aeruginosa 32121 (setting [6]). Further, the MIC in the assay on S. aureus 870307 (setting [7]) is above 6.25 µg/mL; with S. aureus FDA 209P (setting [8]), 0.2 µg/mL (≈ 0.553 µM); in the assay on S. epidermidis 56500 (setting [9]), 0.39 µg/mL (≈ 1.08 µM); in the assay on S. flexneri 2A 5503 (setting [10]), 0.025 µg/mL (≈ 0.0692 µM); with Ser. marcescens 10100 (setting [11]), 0.1 µg/mL (≈ 0.277 µM); with Str. pneumoniae J24 (setting [12]) it was 0.78 µg/mL (≈ 2.16 µM). For the same molecule, the MIC amounted to 0.2 µg/mL (≈ 0.553 µM) with Str. pyrogenes G-36 (read-out: MIC) and 0.39 µg/mL (≈ 1.08 µM) in the assay with X. maltophilia IID 1275 (setting [13]).

On to `Cc1c(N2CC[C@@H](C(N)c3cccnc3)C2)c(F)c(N)c2c(=O)c(C(=O)O)cn([C@@H]3C[C@@H]3F)c12` (stereo partly drawn) [Example 20, 5-Amino-7-(3-(R)-[1-amino-1-(3-pyridyl)methyl]-1-pyrrolidinyl)-6-fluoro-1-[(1R,2S)-2-fluorocyclopropyl]-1,4-dihydro-8-methyl-4-oxoquinoline-3-carboxylic acid], for which the minimal inhibitory concentration (MIC) with E. coli NIHJ (setting [1]) was 0.006 µg/mL (≈ 0.0128 µM); with E. faecalis ATCC 19433 (setting [2]) it was 0.025 µg/mL (≈ 0.0532 µM); with K. pneumoniae TYPE 1 (setting [3]), 0.05 µg/mL (≈ 0.106 µM); in the assay with Pr. Vulgaris O8601 (setting [4]), 0.025 µg/mL (≈ 0.0532 µM); in the assay on Ps. aeruginosa 32104 (setting [5]) it was 0.2 µg/mL (≈ 0.426 µM); in the assay with Ps. aeruginosa 32121 (setting [6]), 0.05 µg/mL (≈ 0.106 µM). In addition, the minimal inhibitory concentration (MIC) in the assay on S. aureus 870307 (setting [7]) is 0.05 µg/mL (≈ 0.106 µM); in the assay with S. aureus FDA 209P (setting [8]), at most 0.003 µg/mL; in the assay on S. epidermidis 56500 (setting [9]) it was at most 0.003 µg/mL; with S. flexneri 2A 5503 (setting [10]) it was 0.006 µg/mL (≈ 0.0128 µM); with Ser. marcescens 10100 (setting [11]), 0.1 µg/mL (≈ 0.213 µM); with Str. pneumoniae J24 (setting [12]) it was at most 0.003 µg/mL. Besides, the minimal inhibitory concentration (MIC) with Str. pyrogenes G-36 (read-out: MIC) is at most 0.003 µg/mL; in the assay with X. maltophilia IID 1275 (setting [13]) it was 0.2 µg/mL (≈ 0.426 µM).

Take `Cc1c(N2CC[C@@H]([C@H](C)N)C2)c(F)c(N)c2c(=O)c(C(=O)O)cn([C@@H]3C[C@@H]3F)c12` [Control drug 1, 5-amino-7-[3-(R)-[1-(S)-aminoethyl]pyrrolidin-1-yl]-6-fluoro-1-[2-(S)-fluoro-1-(R)-cyclopropyl]-8-methyl-1,4-dihydro-4-oxoquinoline-3-carboxylic acid, reference compound]: the MIC came out at 0.006 µg/mL (≈ 0.0148 µM) in the assay on E. coli NIHJ (setting [1]); 0.025 µg/mL (≈ 0.0615 µM) in the assay with E. faecalis ATCC 19433 (setting [2]); 0.05 µg/mL (≈ 0.123 µM) in the assay on K. pneumoniae TYPE 1 (setting [3]); 0.013 µg/mL (≈ 0.032 µM) with Pr. Vulgaris O8601 (setting [4]); 0.1 µg/mL (≈ 0.246 µM) in the assay on Ps. aeruginosa 32104 (setting [5]); 0.05 µg/mL (≈ 0.123 µM) in the assay with Ps. aeruginosa 32121 (setting [6]). For the same molecule, the MIC in the assay with S. aureus 870307 (setting [7]) is 0.025 µg/mL (≈ 0.0615 µM); with S. aureus FDA 209P (setting [8]) it was at most 0.003 µg/mL; in the assay on S. epidermidis 56500 (setting [9]), at most 0.003 µg/mL; in the assay on S. flexneri 2A 5503 (setting [10]), 0.006 µg/mL (≈ 0.0148 µM); in the assay on Ser. marcescens 10100 (setting [11]), 0.1 µg/mL (≈ 0.246 µM); with Str. pneumoniae J24 (setting [12]), at most 0.003 µg/mL. Further, the MIC with Str. pyrogenes G-36 (read-out: MIC) is at most 0.003 µg/mL; in the assay with X. maltophilia IID 1275 (setting [13]), 0.2 µg/mL (≈ 0.492 µM).

Regarding `COc1ccccc1C(N)[C@@H]1CCN(c2c(F)c(N)c3c(=O)c(C(=O)O)cn([C@@H]4C[C@@H]4F)c3c2F)C1` (stereo partly drawn) [Example 8, 5-Amino-7-[3-(R)-(1-Amino-1-(2-Methoxy) Phenylmethyl)-1-Pyrrolidinyl]-6,8-Difluoro-1-[2-(S)-Fluoro-1-(R)-Cyclopropyl]-1,4-Dihydro-4-Oxoquinoline-3-Carboxylic Acid], the MIC result in the assay with E. coli NIHJ is “≦0.003 μg/ml”; in the assay on E. faecalis ATCC 19433 (E. faecalis ATCC 19433), 0.025 µg/mL (≈ 0.0498 µM); against K. pneumoniae TYPE 1 (K. pneumoniae TYPE 1) it was 0.05 µg/mL (≈ 0.0995 µM); in the assay on Pr. Vulgaris O8601, 0.2 µg/mL (≈ 0.398 µM); against Ps. aeruginosa 32104 (Ps. aeruginosa 32104), 0.2 µg/mL (≈ 0.398 µM); against Ps. aeruginosa 32121 (Ps. aeruginosa 32121), 0.1 µg/mL (≈ 0.199 µM). For the same molecule, the MIC against S. aureus 870307 (S. aureus 870307) is 0.013 µg/mL (≈ 0.0259 µM); in the assay on S. aureus FDA 209P, “≦0.003 μg/ml”; with S. epidermidis 56500 it was “≦0.003 μg/ml”; with S. flexneri 2A 5503 (S. flexneri 2A 5503) it was 0.006 µg/mL (≈ 0.0119 µM); in the assay on Ser. marcescens 10100 (Ser. marcescens 10100) it was 0.2 µg/mL (≈ 0.398 µM); in the assay with Str. pneumoniae J24 (Str. pneumoniae J24), “≦0.003 μg/ml”. Further, the MIC entry was “≦0.003 μg/ml” against Str. pyrogenes G-36 and 0.2 µg/mL (≈ 0.398 µM) against X. maltophilia IID 1275 (X. maltophilia IID 1275).
